Measured values: patent US20240285497A1, “METHOD FOR EVALUATING AN ABILITY OF A TEST SAMPLE TO TRIGGER A FOREIGN BODY REACTION IN THE SKIN, A METHOD FOR SCREENING A SUBSTANCE HAVING AN ABILITY TO INHIBIT A FOREIGN BODY REACTION IN THE SKIN, AND AN AGENT FOR INHIBITING A FOREIGN BODY REACTION IN THE SKIN” (priority 2021, published 2024)

What was measured:
[1] = test system: xenobiotic responsive element (XRE); assay: Evaluation of ability to trigger a foreign body reaction using XRE-NLuc::HaCaT reporter cells (NLuc luminescence per viable cell); assay type: cell-based, human
Experimental: First, XRE-NLuc::HaCaT cells were suspended in a DMEM medium at the density of 1×10^5 cell/mL, and 100 μL of the thus obtained suspension was added to each well of white 96 well plates (Thermo Fisher Scientific, MA, U.S.A.; Catalogue No.: 136102) so that the number of the cells in each well was 10,000 cells/well. In accordance with a conventional method, the cells were incubated at 37° C., 5% CO2 for 24 hours. Thereafter, the DMEM medium was removed, and 100 μL of a new DMEM medium containing FICZ (6-Formylindolo[3,2-b]carbazole; CAS RN: 172922-91-7) as a test sample at a predetermined concentration was added, followed by further incubation for 24 hours at 37° C., 5% CO2. FICZ is known as a substance that triggers a foreign body reaction in which XRE is involved. Meanwhile, negative controls were prepared by adding 100 μL of a DMEM medium containing no FICZ instead of the DMEM medium containing FICZ, which were also incubated for 24 hours at 37° C., 5% CO2.
After the above-described incubation for 24 hours, the number of cells in each well was counted by a colorimetric method based on the degradation of tetrazolium salt (WST-1) by mitochondrial dehydrogenase in viable cells. Specifically, 3 μL of Premix WST-1 (Product Name “Premix WST-1 Cell Proliferation Assay System”; Takara Bio Inc., Shiga, Japan; Catalogue No.: MK400) was added to each well of 96 well plates, and then the cells were cultured for 1 hour at 37° C., 5% CO2. Thereafter, 93 μL of cell culture supernatant was removed from each well to measure the absorbance of the supernatant in each well. The removed supernatants were transferred to transparent 96 well plates, and then the absorbance at 450 nm (A450) and, as a reference wavelength, the absorbance at 670 nm (A670) were measured using iMark microplate reader (Bio-Rad; Catalogue No.: 168-1130JA). A value (A450-A670) was obtained by subtracting the absorbance at 670 nm (A670) from the absorbance at 450 nm (A450). The relative viable cell count (%) was expressed as a relative value with the value (A450-A670) obtained for the negative control as 100%.
Meanwhile, the expression level of the reporter protein was measured using samples left on the white 96-well plates after removing the supernatants for the viable cell count measurement. Briefly, 7 μL of Nano-Glo Luciferase Assay System (Promega; Catalogue No.: N110) was added to each well of the white 96-well plate. After 3 mins, the luminescence intensity obtained from the reporter protein produced by XRE-NLuc::HaCaT cells in each well was measured using GloMax Navigator Microplate Luminometer (Promega; Catalogue No.: GM2000). The obtained luminescence intensities were divided by the relative viable cell counts obtained by the above-described colorimetric method to obtain the expression level of the reporter protein (luminescence intensity) per unit number of viable cells.
In FIG. 3, the luminescence intensity per unit number of viable cells obtained from XRE-NLuc::HaCaT cells incubated with each of the DMEM medium containing FICZ at different concentrations was shown as a relative value, with the luminescence intensity per unit number of viable cells obtained for the negative control set to 1. […] In the figure, “*” and “**” indicate statistically significant differences (p<0.05 and p<0.01, respectively) from the negative control (“FICZ Concentration 0 nM” in FIG. 3).
The ability of each test sample to trigger a foreign body reaction was evaluated using XRE-NLuc::HaCaT cells in the same manner as in Experiment 1-2, except that I3C (Indole-3-carbinol, CAS RN: 700-06-1), ITE (2-(1′H-indole-3′-carbonyl)-thiazole-4-carboxylic acid methyl ester, CAS RN: 448906-42-1), and Indirubin (CAS RN: 479-41-4) were used instead of FICZ as test samples and the amount of each test sample added to the DMEM medium was appropriately changed.

[2] = test system: TIMP-1 (Tissue Inhibitor of Matrix Metalloprotease-1) mRNA; assay: TIMP-1 mRNA expression in HaCaT cells, quantitative PCR; assay type: cell-based, human; conditions: 100 μM, 24 hours
Experimental: Specifically, the mRNA expression of TIMP-1 in the HaCaT cells treated with Fraglide-1 was evaluated by performing quantitative PCR using cDNA obtained in Experiment 4-1. The procedure of quantitative PCR was the same as described in Experiment 4-1 except that the primers shown in below Table 5 were used.
(§1) In FIG. 14, the results obtained for each sample were shown in relative values normalized by setting the expression level of TIMP-1 in the HaCaT cells incubated for 24 hours in DMEM medium not containing Fraglide-1 (i.e., the non-treated HaCaT cells) as 1. The results shown in FIG. 14 are the mean of values obtained from three independent experiments, and the error bars represent standard deviation (SD).
On the other hand, as comparison, the similar evaluation was performed for retinoic acid and nicotinamide, which are known as active ingredients of anti-wrinkle agents, using cDNA obtained in Experiment 4-2. The procedure for quantitative PCR was the same as already described in Experiment 3-1, except that the primers shown in Table 5 were used.
as §1, with “15,” for “14,”, “either retinoic acid and nicotinic acid amide” for “Fraglide-1”, “15” for “14”

| Compound | luminescence intensity (reporter protein expression) per unit number of viable cells relative to negative control ([1]; 4 nM FICZ, 24 hours, XRE-NLuc::HaCaT cells) | luminescence intensity from XRE-NLuc::HaCaT cells, dependence on concentration ([1]; FICZ at different concentrations, 24 hours) | EC50 ([1]; XRE-NLuc::HaCaT cells, reporter protein expression) [nM] | Present Experiment Maximum Effective concentration Max. Induction ([1]; XRE-NLuc::HaCaT cells, concentration at which reporter expression was maximized) [µM] | expression level of TIMP-1 compared to non-treated HaCaT cells [2] | expression level of TIMP-1 mRNA vs non-treated HaCaT cells (in words) ([2]; Fraglide-1 1 μM, 10 μM, retinoic acid / nicotinic acid amide at predetermined concentrations) |
| --- | --- | --- | --- | --- | --- | --- |
| 6-formylindolo[3,2-b] carbazole [FICZ] | about three times higher | increased along with the concentration of FICZ | 12 | 0.5 |  |  |
| O=C1C=C(c2ccccc2)C(O)O1 (stereo not drawn) [Fraglide-1, 5-hydroxy-4-phenyl-2(5H)butenolide] |  |  |  |  | about 4 fold | concentration-dependent increase |
